Experimental data from the NIST ThermoML archive (doi:10.1021/je200252c).
Numbers after ± are expanded uncertainties.

Assay: Molar enthalpy of transition or fusion
Conditions: Crystal; DSC

c1ccc2c(c1)OP1(=NP3(=NP4(=N1)Oc1ccccc1O4)Oc1ccccc1O3)O2 [tris(o-phenylenedioxy)cyclotriphosphazene]
Molar enthalpy of transition or fusion: 4.67 ± 0.143 kcal/mol
